Test results taken from patent US12723063B2, “GIPR-agonist compounds” (Eli Lilly and Company, priority 2019, dated 2026).
*1 amine or outer side, *2 acyl side, *3 side chain or, on linkers, in order; H or OH if unused. Where a SMILES comes first, the peptide text is derived from it. Side-chain parts run from the residue outwards. [ ]: non-standard residue; d: D form. The star is where a group is joined. C20 diacid = O=C(O)CCCCCCCCCCCCCCCCCCC(=O)*; C18 diacid = O=C(O)CCCCCCCCCCCCCCCCC(=O)*; αMePhe(2-F) = C[C@](N)(Cc1ccccc1F)C(=O)O; γGlu = O=C(O)[C@H](CCC(=O)[*:2])N[*:1]; AEEA = NCCOCCOCC(=O)O; Aib = CC(C)(N)C(=O)O

How the values were obtained:
human GIPR = target: T1, human GIPR (Homo sapiens, UniProt P48546); experiment: [125I]-GIP binding, SPA with WGA beads, 0.1% bacitracin; details: geometric mean, read-out: hGIPR Ki
T1 construct: expressed in transfected cells; crude membranes
T1 sequence (P48546 22-466): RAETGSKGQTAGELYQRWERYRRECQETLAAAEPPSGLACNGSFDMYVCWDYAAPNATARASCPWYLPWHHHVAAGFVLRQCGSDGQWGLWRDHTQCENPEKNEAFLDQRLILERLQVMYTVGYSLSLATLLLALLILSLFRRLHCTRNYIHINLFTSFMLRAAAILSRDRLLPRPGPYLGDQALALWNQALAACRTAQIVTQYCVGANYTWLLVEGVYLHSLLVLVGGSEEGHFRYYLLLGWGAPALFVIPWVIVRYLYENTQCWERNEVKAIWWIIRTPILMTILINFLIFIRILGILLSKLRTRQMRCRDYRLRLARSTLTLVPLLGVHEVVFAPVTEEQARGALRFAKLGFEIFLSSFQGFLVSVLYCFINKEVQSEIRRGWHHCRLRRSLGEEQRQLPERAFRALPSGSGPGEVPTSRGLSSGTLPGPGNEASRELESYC
Summary of the method: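 Ki values are geometric means (SEM, n independent days), derived from four-parameter nonlinear regression of IC50. Membranes came from hGIPR-expressing CHO cells.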

[1] = target: T2, human glucose-dependent insulinotropic peptide receptor (GIPR) (Homo sapiens, UniProt P48546); experiment: cAMP functional assay (HTRF) in HEK293 cells in presence of 0.1% casein; format: cell-based; details: HEK293 cells expressing human GIPR, geometric mean, read-out: hGIPR cAMP Rel EC50 nM (SEM, n)
T2 construct: expressed in transfected cells; host or cells: HEK293
T2 sequence (P48546 22-466): T1 sequence (P48546 22-466)

SMILES	Ki (human GIPR)	EC50 [1]
CC[C@H](C)[C@H](NC(=O)[C@H](CO)NC(=O)[C@H](Cc1ccc(O)cc1)NC(=O)[C@H](CC(=O)O)NC(=O)[C@H](CO)NC(=O)[C@@H](NC(=O)[C@](C)(Cc1ccccc1F)NC(=O)[C@@H](NC(=O)CNC(=O)[C@H](CCC(=O)O)NC(=O)C(C)(C)NC(=O)[C@@H](N)Cc1ccc(O)cc1)[C@@H](C)O)[C@@H](C)CC)C(=O)N[C@@H](C)C(=O)N[C@@H](CC(C)C)C(=O)N[C@@H](CC(=O)O)C(=O)N[C@@H](CCCCN)C(=O)N[C@@H](CCCCNC(=O)COCCOCCNC(=O)COCCOCCNC(=O)CC[C@H](NC(=O)CCCCCCCCCCCCCCCCCCC(=O)O)C(=O)O)C(=O)N[C@@H](Cc1c[nH]cn1)C(=O)N[C@@H](CCC(N)=O)C(=O)NC(C)(C)C(=O)N[C@@H](CCC(=O)O)C(=O)N[C@@H](Cc1ccccc1)C(=O)N[C@H](C(=O)N[C@@H](CC(N)=O)C(=O)N[C@@H](Cc1c[nH]c2ccccc12)C(=O)N[C@@H](CC(C)C)C(=O)N[C@@H](CC(C)C)C(=O)N[C@@H](C)C(=O)NCC(=O)NCC(=O)N1CCC[C@H]1C(=O)N[C@@H](CO)C(=O)N[C@@H](CO)C(=O)NCC(=O)N[C@@H](C)C(=O)N1CCC[C@H]1C(=O)N1CCC[C@H]1C(=O)N1CCC[C@H]1C(=O)N[C@@H](CO)C(N)=O)C(C)C [Example 26] (H-Y[Aib]EGT[αMePhe(2-F)]ISDYSIALDKK([AEEA-AEEA-γGlu-C20 diacid])HQ[Aib]EFVNWLLAGGPSSGAPPPS-NH2)	0.045 nM	0.00991 nM
CC[C@H](C)[C@H](NC(=O)[C@H](Cc1ccccc1)NC(=O)[C@@H](NC(=O)CNC(=O)[C@H](CCC(=O)O)NC(=O)C(C)(C)NC(=O)[C@@H](N)Cc1ccc(O)cc1)[C@@H](C)O)C(=O)N[C@@H](CO)C(=O)N[C@@H](CC(=O)O)C(=O)N[C@@H](Cc1ccc(O)cc1)C(=O)N[C@@H](CO)C(=O)N[C@H](C(=O)N[C@@](C)(CC(C)C)C(=O)N[C@@H](CC(C)C)C(=O)N[C@@H](CC(=O)O)C(=O)N[C@@H](CCCCN)C(=O)N[C@@H](CCCCNC(=O)COCCOCCNC(=O)COCCOCCNC(=O)CC[C@H](NC(=O)CCCCCCCCCCCCCCCCCCC(=O)O)C(=O)O)C(=O)N[C@@H](Cc1c[nH]cn1)C(=O)N[C@@H](CCC(N)=O)C(=O)NC(C)(C)C(=O)N[C@@H](CC(=O)O)C(=O)N[C@@H](Cc1ccccc1)C(=O)N[C@H](C(=O)N[C@@H](CCC(=O)O)C(=O)N[C@@H](Cc1ccncc1)C(=O)N[C@@H](CC(C)C)C(=O)N[C@@H](CC(C)C)C(=O)N[C@@H](C)C(=O)N[C@@H](C)C(=O)NCC(=O)N1CCC[C@H]1C(=O)N[C@@H](CO)C(=O)N[C@@H](CO)C(=O)NCC(=O)N[C@@H](C)C(=O)N1CCC[C@H]1C(=O)N1CCC[C@H]1C(=O)N1CCC[C@H]1C(=O)N[C@@H](CO)C(N)=O)C(C)C)[C@@H](C)CC [Example 78]	0.0236 nM	0.0125 nM
CC[C@H](C)[C@H](NC(=O)[C@H](CO)NC(=O)[C@H](Cc1ccc(O)cc1)NC(=O)[C@H](CC(=O)O)NC(=O)[C@H](CO)NC(=O)[C@@H](NC(=O)[C@H](Cc1ccccc1)NC(=O)[C@@H](NC(=O)CNC(=O)[C@H](CCC(=O)O)NC(=O)[C@@H](C)NC(=O)[C@@H](N)Cc1ccc(O)cc1)[C@@H](C)O)[C@@H](C)CC)C(=O)N[C@@H](CC(C)C)C(=O)N[C@@H](CC(C)C)C(=O)N[C@@H](CC(=O)O)C(=O)N[C@@H](CCCCN)C(=O)N[C@@H](CCCCNC(=O)COCCOCCNC(=O)COCCOCCNC(=O)CC[C@H](NC(=O)CCCCCCCCCCCCCCCCC(=O)O)C(=O)O)C(=O)N[C@@H](C)C(=O)N[C@@H](CCC(N)=O)C(=O)NC(C)(C)C(=O)N[C@@H](CC(=O)O)C(=O)N[C@@H](Cc1ccccc1)C(=O)N[C@H](C(=O)N[C@@H](CC(N)=O)C(=O)N[C@@H](Cc1c[nH]c2ccccc12)C(=O)N[C@@H](CC(C)C)C(=O)N[C@@H](CC(C)C)C(=O)N[C@@H](C)C(=O)NCC(=O)NCC(=O)N1CCC[C@H]1C(=O)N[C@@H](CO)C(=O)N[C@@H](CO)C(=O)NCC(=O)N[C@@H](C)C(=O)N1CCC[C@H]1C(=O)N1CCC[C@H]1C(=O)N1CCC[C@H]1C(=O)N[C@@H](CO)C(N)=O)C(C)C [Example 19] (H-Y[dA]EGTFISDYSILLDKK([AEEA-AEEA-γGlu-C18 diacid])AQ[Aib]DFVNWLLAGGPSSGAPPPS-NH2)	0.0469 nM	0.00992 nM
